Article PMC3323469, “Comparative study of ^64Cu/NOTA-[D-Tyr^6,βAla^11,Thi^13,Nle^14]BBN(6-14) monomer and dimers for prostate cancer PET imaging” (EJNMMI Research, 2012)
Numbered stars: 1 amine (or outer) side, 2 acyl side, 3 side chain; on linkers, the order of the positions; unused ones are H or OH. Bridge positions count the residues as written; N and C are the ends. Square brackets hold non-standard residues; d marks the D form. Peptide text beside a SMILES is read from it. I, II: the chains in the order shown. * marks the point of attachment. NOTA = O=C(O)CN1CCN(CC(=O)O)CCN(CC(=O)*)CC1; X1 = O=C(CCC(=O)[*:2])NCCOCCOCC(=O)[*:1]; 2Thi = N[C@@H](Cc1cccs1)C(=O)O; Nle = CCCC[C@H](N)C(=O)O; AEEA = NCCOCCOCC(=O)O; βAla = NCCC(=O)O

Experiments:
GRPR [1] = target: T1, GRPR (Mus musculus, UniProt P21729); experiment: Biodistribution in Balb/c mice (in vivo GRPR-targeting efficacy); settings: 64Cu-labeled peptide, 30 min p.i.; for Pancreas uptake: female Balb/c mice
T1 construct: using the pancreas, a GRPR-rich tissue, as a target for specific receptor-mediated accumulation; from tissue; host or cells: Female Balb/c mice, in vivo; organs (pancreas and others) collected 30 min p.i
Protocol: To determine the in vivo GRPR-targeting efficacy of labeled peptides, biodistribution of female Balb/c mice were realized with a minimum of 4 mice for each condition. Briefly, mice were injected with 370 to 740 kBq (10 to 20 μCi; 100 μL) of either ^64Cu/NOTA-monomer, ^64Cu/NOTA-dimer 1 or ^64Cu/NOTA-dimer 2 via the caudal vein. The animals were sacrificed with CO2 at 30 min post-injection [p.i.]. Organs of interest were then collected, weighed and measured in a gamma counter. The results were expressed as percentage of the injected dose per gram of tissue [%ID/g].

[2] = Solubility in physiological media; type: physicochemical; settings: 64Cu-labeled peptide; DMF-PBS (10/90 v/v) used to solubilize
Protocol: Our cyclotron facility provides ^64Cu isotope on a routine basis for research purposes using a target system developed in collaboration with Advanced Cyclotron Systems Inc. (ACSI, Richmond, British Columbia, Canada). ^64Cu was prepared on an EBCO TR-19 cyclotron (EBCO Technologies, Vancouver, Canada) by the ^64Ni(p, n)^64Cu nuclear reaction using an enriched ^64Ni target electroplated on a rhodium disk. [^64Cu]CuCl2 was recovered from the target following the procedure of McCarthy et al. and converted to [^64Cu]copper[II] acetate by dissolving the [^64Cu]CuCl2 in ammonium acetate (0.1 M; pH 5.5). Peptides were labeled with ^64Cu following conditions optimized in our laboratory. Briefly, peptides (5 μg) were dissolved in a 0.1 M ammonium acetate buffer at pH 5.5 with [^64Cu]Cu(OAc)2 (8 to 10 mCi, 296 to 370 MBq) in a total volume of 250 to 300 μL, and then, the resulting solution was incubated at 100°C for 10 min. The labeled product was purified by HPLC using a C-18 column and a radio-detector. The amount of radiolabeled peptide was determined by the peak area of the tracer in the UV-chromatogram compared to the UV peak area of the standard unlabelled peptide (Figure 3). […] The peptide fraction was collected, evaporated and counted in a Capintec radioisotope calibrator (Capintec, Inc., NJ, USA) to calculate the specific activity of the product.

GRPR [3] = target: GRPR (Homo sapiens, UniProt P30550); experiment: Competitive binding assay with [125I-Tyr4]bombesin on PC3 cells; design: host or cells: PC3 cells (whole, adherent cells in 24-well plates); settings: read-out: Ki (affinity for GRPR)
Protocol: Competition assays were performed in 24-well plates using PC3 cells. The cells were cultured until near confluence, and the medium was replaced by 400 μL of reaction medium (RPMI complemented with 2 mg/mL BSA, 4.8 mg/mL HEPES, 1 U/mL penicillin G and 1 μg/mL streptomycin). For the assay, equal volumes of radioactive and non-radioactive ligands were added. […] The plates were incubated for 40 min at 37°C with agitation. After the incubation, the reaction medium was removed, and the cells were washed three times with PBS at room temperature. The cells were harvested and counted in a gamma counter (Cobra II auto-gamma counter, Packard, MN, USA). Experiments were realized three times in triplicate. Data were analyzed with GraphPad Prism 5 Software (GraphPad Software, San Diego, CA, USA) to determine the IC50. Finally, the Ki was determined using Cheng and Pursoff's formula [32].

T1 sequence (P21729 whole entry): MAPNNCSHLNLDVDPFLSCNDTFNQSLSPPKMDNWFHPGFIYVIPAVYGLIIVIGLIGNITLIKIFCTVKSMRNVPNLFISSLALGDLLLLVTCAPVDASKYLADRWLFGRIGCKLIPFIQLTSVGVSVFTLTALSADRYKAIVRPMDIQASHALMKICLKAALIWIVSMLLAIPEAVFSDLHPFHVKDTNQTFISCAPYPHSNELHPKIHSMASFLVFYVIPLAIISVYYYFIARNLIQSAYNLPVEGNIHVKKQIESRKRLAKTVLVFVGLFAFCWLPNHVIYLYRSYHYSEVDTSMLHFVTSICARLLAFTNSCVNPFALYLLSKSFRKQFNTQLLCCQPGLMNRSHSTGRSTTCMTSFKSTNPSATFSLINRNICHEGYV
Sequence of GRPR (Homo sapiens, UniProt P30550) (P30550 whole entry): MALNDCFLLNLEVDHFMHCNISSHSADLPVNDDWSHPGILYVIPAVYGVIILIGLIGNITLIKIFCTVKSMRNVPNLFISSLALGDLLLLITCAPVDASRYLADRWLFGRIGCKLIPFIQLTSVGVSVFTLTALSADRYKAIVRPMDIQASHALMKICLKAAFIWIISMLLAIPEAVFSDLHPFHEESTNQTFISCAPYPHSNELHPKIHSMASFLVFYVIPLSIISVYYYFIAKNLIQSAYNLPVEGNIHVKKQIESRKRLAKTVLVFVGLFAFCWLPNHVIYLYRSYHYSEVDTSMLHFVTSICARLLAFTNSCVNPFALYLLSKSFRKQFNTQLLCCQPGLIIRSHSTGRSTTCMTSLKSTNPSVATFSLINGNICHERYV

Compound | Pancreas uptake (GRPR [1]) [%ID/g] | Solubility in physiological media [2] | Ki (GRPR [3]) [nM] | Fold higher pancreas uptake than NOTA-monomer and NOTA-dimer 1 (GRPR [1]; Balb/c mice) [fold]
CCCC[C@H](NC(=O)[C@H](Cc1cccs1)NC(=O)[C@H](Cc1c[nH]cn1)NC(=O)CCNC(=O)[C@@H](NC(=O)[C@H](C)NC(=O)[C@H](Cc1c[nH]c2ccccc12)NC(=O)[C@H](CCC(N)=O)NC(=O)[C@@H](Cc1ccc(O)cc1)NC(=O)CCC(=O)NCCOCCOCC(=O)N[C@@H](CCCCNC(=O)CN1CCN(CC(=O)O)CCN(CC(=O)O)CC1)C(=O)NCC(=O)N[C@H](Cc1ccc(O)cc1)C(=O)N[C@@H](CCC(N)=O)C(=O)N[C@@H](Cc1c[nH]c2ccccc12)C(=O)N[C@@H](C)C(=O)N[C@H](C(=O)NCCC(=O)N[C@@H](Cc1c[nH]cn1)C(=O)N[C@@H](Cc1cccs1)C(=O)N[C@@H](CCCC)C(N)=O)C(C)C)C(C)C)C(N)=O [NOTA-dimer 1, BBN(6-14)-Suc-PEG-Lys(NOTA)-Gly-BBN(6-14)] (I: K(NOTA)G[dY]QWAV[βAla]H[2Thi][Nle]-NH2 / II: [dY]QWAV[βAla]H[2Thi][Nle]-NH2; linker I:N-II:N via X1) | 15.6 ± 2.0 | poorly soluble | 2 ± 1.59 | 
CCCC[C@H](NC(=O)[C@H](Cc1cccs1)NC(=O)[C@H](Cc1c[nH]cn1)NC(=O)CCNC(=O)[C@@H](NC(=O)[C@H](C)NC(=O)[C@H](Cc1c[nH]c2ccccc12)NC(=O)[C@H](CCC(N)=O)NC(=O)[C@@H](Cc1ccc(O)cc1)NC(=O)CCC(=O)NCCOCCOCC(=O)N[C@@H](CCCCNC(=O)CN1CCN(CC(=O)O)CCN(CC(=O)O)CC1)C(=O)NCCOCCOCC(=O)NCC(=O)N[C@H](Cc1ccc(O)cc1)C(=O)N[C@@H](CCC(N)=O)C(=O)N[C@@H](Cc1c[nH]c2ccccc12)C(=O)N[C@@H](C)C(=O)N[C@H](C(=O)NCCC(=O)N[C@@H](Cc1c[nH]cn1)C(=O)N[C@@H](Cc1cccs1)C(=O)N[C@@H](CCCC)C(N)=O)C(C)C)C(C)C)C(N)=O [NOTA-dimer 2, BBN(6-14)-Suc-PEG-Lys(NOTA)-PEG-Gly-BBN(6-14)] (I: K(NOTA)[AEEA]G[dY]QWAV[βAla]H[2Thi][Nle]-NH2 / II: [dY]QWAV[βAla]H[2Thi][Nle]-NH2; linker I:N-II:N via X1) | 57 ± 16 | poorly soluble | 1.76 ± 1.3 | 3.6
